Laboratory results reported in patent US5034391A, “Piperazinylalkyl-3(2H)-pyridazinones and the use thereof as agents lowering blood pressure” (CL Pharma Aktiengesellschaft, priority 1988, dated 1991).

Columns and labels:
alpha1 adrenoceptors = molecular target: T1, alpha1 adrenoceptors (Rattus norvegicus, UniProt P15823); experiment: Affinity for alpha1 adrenoceptors: displacement of tritiated prazosin on rat cardiac membranes; format: binding; conditions: Ki from IC50 by Cheng and Prusoff, read-out: Inhibition constants at alpha-1-adrenoceptor (Ki)
T1 construct: from tissue; host or cells: rat cardiac membranes
T1 sequence (P15823 1-515): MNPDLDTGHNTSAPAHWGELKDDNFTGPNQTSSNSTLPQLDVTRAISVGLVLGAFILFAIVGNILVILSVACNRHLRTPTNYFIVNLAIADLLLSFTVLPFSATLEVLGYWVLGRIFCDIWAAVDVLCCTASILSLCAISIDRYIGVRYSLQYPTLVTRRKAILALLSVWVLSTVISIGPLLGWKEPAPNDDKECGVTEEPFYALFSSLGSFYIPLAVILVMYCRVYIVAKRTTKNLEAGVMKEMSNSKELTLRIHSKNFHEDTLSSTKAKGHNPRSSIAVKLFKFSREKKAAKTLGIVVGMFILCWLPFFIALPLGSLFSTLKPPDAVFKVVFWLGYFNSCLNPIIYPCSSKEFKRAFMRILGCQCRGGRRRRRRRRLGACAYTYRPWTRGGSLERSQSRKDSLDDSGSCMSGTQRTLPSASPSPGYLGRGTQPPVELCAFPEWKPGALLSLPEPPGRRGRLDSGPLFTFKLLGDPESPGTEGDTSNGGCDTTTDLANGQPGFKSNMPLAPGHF
Experimental: The affinity of compounds of the general formula I for alpha1 adrenoceptors was established using the method described by R. S. Williams, D. F. Dukes and […] in J. Cardiovasc. Pharmacol. 3, 522-531 (1981). In this method the competitive displacement of tritiated prazosin (2-(4-(2-furoyl)-1-piperazinyl)-4-amino-6,7-dimethoxy-quinazoline) on rat-cardiac membranes by the test substances is measured, and the IC50 (50% inhibition concentration) is determined as that concentration which brings about a 50% inhibition of the specific binding of tritiated prazosin to the alpha1 adrenoceptors in rat cardiac membranes.
The concentration-independent inhibitor constants K1 -alpha1 were determined from the IC50 values as stated by Y. Cheng and H. W.Prusoff in Biochem. Pharmacol. 22, 3099-3108 (1973).

5-HT-1A receptors = molecular target: T2, 5-HT-1A receptors (Rattus norvegicus, UniProt P19327); experiment: Affinity for 5-HT-1A receptors: displacement of tritiated 8-OH-DPAT on rat brain membranes; format: binding; conditions: Ki from IC50 by Cheng and Prusoff, read-out: Inhibition constants at 5-HT1A-receptor (Ki)
T2 construct: 5-HT-1A receptors in rat brain membranes; from tissue; host or cells: rat brain membranes
T2 sequence (P19327 1-422): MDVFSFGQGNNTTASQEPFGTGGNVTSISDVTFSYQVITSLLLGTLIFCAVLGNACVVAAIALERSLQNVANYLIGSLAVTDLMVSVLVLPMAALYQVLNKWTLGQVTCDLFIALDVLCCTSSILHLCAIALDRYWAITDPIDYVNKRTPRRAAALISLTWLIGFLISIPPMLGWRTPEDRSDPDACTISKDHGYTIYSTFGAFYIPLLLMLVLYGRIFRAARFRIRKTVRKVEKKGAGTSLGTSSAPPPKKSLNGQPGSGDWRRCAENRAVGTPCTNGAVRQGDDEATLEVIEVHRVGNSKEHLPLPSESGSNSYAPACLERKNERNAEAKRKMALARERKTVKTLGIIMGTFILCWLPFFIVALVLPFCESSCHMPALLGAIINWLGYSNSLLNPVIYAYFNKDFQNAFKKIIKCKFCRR
Experimental: The affinity of compounds of the general formula I for 5-HT-1A receptors was determined by the method described by H. Gozlan, S. Elmestikawy, L. Pichat, J. Glowinski and M. Hamon in Nature 305, 140-142 (1983). In this method the competitive displacement of tritiated 8-OH-DPAT (8-hydroxy-(di-n-propylamino)tetralin) on rat brain membranes by the test substances is measured, and the IC50 (50% inhibition concentration) is determined as that concentration which brings about a 50% inhibition of the specific binding of tritiated 8-OH-DPAT to 5-HT-1A receptors in rat brain membranes.
The concentration-independent inhibitor constants K1 -alpha1 and K1 -5HT-1A were determined from the IC50 values as stated by Y. Cheng and H. W. Prusoff in Biochem. Pharmacol. 22, 3099-3108 (1973).

COc1ccccc1N1CCN(CCNc2cnn(CCN(C)C)c(=O)c2Cl)CC1 [2-(Dimethylaminoethyl)-4-chloro-5-((2-(4-(2-methoxyphenyl)piperazinyl-1)ethyl)amino)-3(2H)-pyridazinone]
Ki (alpha1 adrenoceptors): 17.3 nM | Ki (5-HT-1A receptors): 118 nM

COc1ccccc1N1CCN(CCNc2cnn(CCO)c(=O)c2Cl)CC1 [2-Hydroxyethl-4-chloro-5-((2-(4-(2-methoxyphenyl)piperazinyl-1-)ethyl)amino-3(2H)-pyridazinone]
Ki (alpha1 adrenoceptors): 10.8 nM | Ki (5-HT-1A receptors): 86.3 nM

COc1ccccc1N1CCN(CCNc2ccnn(CCO)c2=O)CC1 [2-Hydroxyethyl-4-((2-(4-(2-methoxyphenyl)piperazinyl-1)ethyl)amino)-3(2H)-pyridazinone]
Ki (alpha1 adrenoceptors): 17.7 nM | Ki (5-HT-1A receptors): 18.2 nM

COc1ccccc1N1CCN(CCNc2cnn(CCO)c(=O)c2)CC1 [2-Hydroxyethyl-5-((2-(4-(2-methoxyphenyl)piperazinyl-1)ethyl)amino)-3(2H)-pyridazinone]
Ki (alpha1 adrenoceptors): 128 nM | Ki (5-HT-1A receptors): 55.8 nM

COc1ccccc1N1CCN(CCNc2c(Cl)cnn(CCO)c2=O)CC1 [2-Hydroxyethyl-5-chloro-4-((2-(4-(2-methoxyphenyl)piperazinyl-1)ethyl)amino)-3(2H)-pyridazinone]
Ki (alpha1 adrenoceptors): 2.42 nM | Ki (5-HT-1A receptors): 25.6 nM

Cn1nccc(NCCN2CCN(c3ccccc3O)CC2)c1=O [2-Methyl-4-((2-(4-(2-hydroxyphenyl)piperazinyl-1)ethyl)amino)-3(2H)-pyridazinone]
Ki (alpha1 adrenoceptors): 65.5 nM | Ki (5-HT-1A receptors): 36.5 nM

COc1cc(C)ccc1N1CCN(CCNc2ccnn(C)c2=O)CC1 [2-Methyl-4-((2-(4-(2-methoxy-4-methylphenyl)piperazinyl-1)ethyl)amino)-3(2H)-pyridazinone]
Ki (alpha1 adrenoceptors): 171 nM | Ki (5-HT-1A receptors): 272 nM

COc1ccc(C)cc1N1CCN(CCNc2ccnn(C)c2=O)CC1 [2-Methyl-4-((2-(4-(2-methoxy-5-methylphenyl)piperazinyl-1)ethyl)amino)-3(2H)-pyridazinone]
Ki (alpha1 adrenoceptors): 73.6 nM | Ki (5-HT-1A receptors): 186 nM

Cn1nccc(NCCN2CCN(c3cccc(C(F)(F)F)c3)CC2)c1=O [2-Methyl-4-((2-(4-(3-trifluoromethylphenyl)piperazinyl-1)ethyl)amino-3(2H)-pyridazinone]
Ki (alpha1 adrenoceptors): 175 nM | Ki (5-HT-1A receptors): 4.56 nM

Cn1nccc(NCCN2CCN(c3ccccc3)CC2)c1=O [2-Methyl-4-((2-(4-phenylpiperazinyl-1)ethyl)amino)-3(2H) pyridazinone]
Ki (alpha1 adrenoceptors): 90.3 nM | Ki (5-HT-1A receptors): 261 nM

CCN(CCN1CCN(c2ccccc2OC)CC1)c1ccnn(C)c1=O [2-Methyl-4-(ethyl-(2-(4-(2-methoxyphenyl)piperazinyl-1)ethyl)amino)-3(2H)-pyridazinone]
Ki (alpha1 adrenoceptors): 68 nM | Ki (5-HT-1A receptors): 40.7 nM

CCOc1ccccc1N1CCN(CCNc2cnn(C)c(=O)c2Cl)CC1 [2-Methyl-4-chloro-5-((2-(4-(2-ethoxyphenyl)piperazinyl-1)ethyl)amino)-3(2H)-pyridazinone]
Ki (alpha1 adrenoceptors): 7.59 nM | Ki (5-HT-1A receptors): 36.8 nM

Cn1ncc(NCCN2CCN(c3ccccc3F)CC2)c(Cl)c1=O [2-Methyl-4-chloro-5-((2-(4-(2-fluorophenyl)piperazinyl-1)ethyl)amino)-3(2H)-pyridazinone]
Ki (alpha1 adrenoceptors): 28.2 nM | Ki (5-HT-1A receptors): 398 nM

Cc1ccccc1N1CCN(CCCNc2c(Cl)cnn(C)c2=O)CC1 [2-Methyl-5-chloro-4-((3-(4-(2-methylphenyl)piperazinyl-1)piperazinyl-1)propyl)amino)-3(2H)-pyridazinone]
Ki (alpha1 adrenoceptors): 4.45 nM

COc1ccccc1N1CCN(CCCN(C)c2c(Cl)cnn(C)c2=O)CC1 [2-Methyl-5-chloro-4-(methyl-(3-(4-(2-methoxyphenyl)piperazinyl-1)propyl)amino)-3(2H)-pyridazinone]
Ki (alpha1 adrenoceptors): 12.9 nM

CCOc1ccccc1N1CCN(CCCNc2cc(Cl)nn(C)c2=O)CC1 [2-Methyl-6-chloro-(3-(4-(4-(2-ethoxyphenyl)piperazinyl-1)propyl)amino)-3(2H)-pyridazinone]
Ki (alpha1 adrenoceptors): 6.5 nM

COc1ccccc1N1CCN(CCNc2cnn(-c3ccccc3)c(=O)c2)CC1 [2-Phenyl-5-((2-(4-(2-methoxyphenyl)piperazinyl-1)ethyl)amino)-3(2H)-pyridazinone]
Ki (alpha1 adrenoceptors): 61.6 nM

COc1ccccc1N1CCN(CCCCNc2c(Cl)cnn(C)c2=O)CC1 [2-methyl-5-chloro-4-((4-(4-(2-methoxyphenyl)-1-piperazinyl)butyl)amino)-3(2H)-pyridazinone]
Ki (alpha1 adrenoceptors): 2.15 nM

COc1ccccc1N1CCN(CCNc2ccnn(C(C)(C)C)c2=O)CC1 [2-t-Butyl-4-((2-(4-(2-methoxyphenyl)piperazinyl-1)ethyl)amino)-3(2H)-pyridazinone]
Ki (alpha1 adrenoceptors): 60.8 nM

O=c1[nH]nccc1NCCN1CCN(c2ccccc2O)CC1 [4((2-(4-(2-Hydroxyphenyl)piperazinyl-1)ethyl)amino)-3(2H)-pyridazinone]
Ki (alpha1 adrenoceptors): 84 nM

COc1ccccc1N1CCN(CCNc2ccn[nH]c2=O)CC1 [4-((2-(4-(2-Methoxyphenyl)piperazinyl-1)ethyl)amino)-3(2H)-pyridazinone]
Ki (alpha1 adrenoceptors): 42.2 nM

CCOc1ccccc1N1CCN(CCCNc2ccn[nH]c2=O)CC1 [4-((3-(4-(2-Ethoxyphenyl)piperazinyl-1)propyl)amino)-3(2H)pyridazinone]
Ki (alpha1 adrenoceptors): 13 nM

COc1ccccc1N1CCN(CCCNc2ccn[nH]c2=O)CC1 [4-((3-(4-(2-Methoxyphenyl)piperazinyl-1)propyl)amino) -3(2H)-pyridazinone]
Ki (alpha1 adrenoceptors): 26.1 nM

COc1ccccc1N1CCN(CCCCNc2ccn[nH]c2=O)CC1 [4-((4-(4-(2-Methoxyphenyl)piperazinyl-1)butyl)amino) -3(2H)-pyridazinone]
Ki (alpha1 adrenoceptors): 4.64 nM

COc1ccccc1N1CCN(CCNc2c(Cl)cn[nH]c2=O)CC1 [5-Chloro-4-((2-(4-methoxyphenyl)piperazinyl-1)ethyl)amino)-3(2H)-pyridazinone]
Ki (alpha1 adrenoceptors): 2.95 nM

CCn1nc(Cl)cc(NCCCN2CCN(c3ccccc3OC)CC2)c1=O [6-Chloro-2-ethyl-4-((3-(4-(2-methoxyphenyl)-1-piperazinyl)propyl)amino)-3(2H)-pyridazinone]
Ki (alpha1 adrenoceptors): 18 nM

COc1ccccc1N1CCN(CCCNc2cc(Cl)nn(CCO)c2=O)CC1 [6-Chloro-2-hydroxyethyl-4-((3-(4-(2-methoxyphenyl)piperazinyl-1)propyl)amino)-3(2H)-pyridazinone]
Ki (alpha1 adrenoceptors): 9.6 nM

CC(C)Oc1ccccc1N1CCN(CCNc2cc(Cl)n[nH]c2=O)CC1 [6-Chloro-4-((2-(4-(2-iso-propoxyphenyl)piperazinyl-1)ethyl)amino)-3(2H)-pyridazinone]
Ki (alpha1 adrenoceptors): 10 nM

COc1ccccc1N1CCN(CCNc2cc(Cl)n[nH]c2=O)CC1 [6-Chloro-4-((2-(4-(2-methoxyphenyl)piperazinyl-1)ethyl)amino)-3(2H)-pyridazinone]
Ki (alpha1 adrenoceptors): 12.8 nM

COc1cc(C)ccc1N1CCN(CCCNc2cc(Cl)n[nH]c2=O)CC1 [6-Chloro-4-((3-(4-(2-methoxy-4-methylphenyl)piperazinyl-1)propyl)amino)-3(2H)-pyridazinone]
Ki (alpha1 adrenoceptors): 7.49 nM

COc1ccccc1N1CCN(CCCNc2cc(Cl)n[nH]c2=O)CC1 [6-Chloro-4-((3-(4-(2-methoxyphenyl)piperazinyl-1)propyl)amino)-3(2H)-pyridazinone]
Ki (alpha1 adrenoceptors): 11 nM

COc1ccccc1N1CCN(CCCCNc2cc(Cl)n[nH]c2=O)CC1 [6-Chloro-4-((4-(4-(2-methoxyphenyl)-1-piperazinyl)butyl)amino)-3(2H)-pyridazinone]
Ki (alpha1 adrenoceptors): 3.34 nM
